Laboratory results published in ChEMBL document CHEMBL5518165, “M335, a novel small-molecule STING agonist activates the immune response and exerts antitumor effects” (Eur J Med Chem, 2024).
Activity calls are given as the source filed them. No cut-off for these calls is given here.

Tests used:
[1] = target: T1, Stimulator of interferon genes protein (Mus musculus) (UniProt Q3TBT3); experiment: Agonist activity at STING in MEF cells assessed as increase in STING oligomerization by Western blotting analysis; assay type: cell-based; conditions: filed as agonist
T1 sequence (whole entry): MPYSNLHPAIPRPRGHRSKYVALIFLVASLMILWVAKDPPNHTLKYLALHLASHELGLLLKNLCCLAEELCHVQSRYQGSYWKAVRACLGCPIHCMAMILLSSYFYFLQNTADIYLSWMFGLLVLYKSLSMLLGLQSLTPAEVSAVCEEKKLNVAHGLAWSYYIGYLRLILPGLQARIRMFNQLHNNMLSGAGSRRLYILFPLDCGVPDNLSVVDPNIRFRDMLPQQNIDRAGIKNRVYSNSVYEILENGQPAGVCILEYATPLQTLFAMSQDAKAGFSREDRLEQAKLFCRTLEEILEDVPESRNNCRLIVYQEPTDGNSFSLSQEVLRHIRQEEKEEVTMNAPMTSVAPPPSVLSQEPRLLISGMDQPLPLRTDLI

THP-1 [2] = experiment: Upregulation of IL6 mRNA level in STING-knockout human THP-1 cells at 20 uM measured for 4 hrs by qPCR analysis; assay type: functional, cell-based
Human alphaherpesvirus 1 [3] = experiment: Antiviral activity against HSV-1-GFP infected in human STING-deficient WT HeLa cells assessed as reduction in viral infection by fluorescent microscopy analysis; assay type: functional, organism-based
[4] = target: Stimulator of interferon genes protein (Homo sapiens) (UniProt Q86WV6); experiment: Binding affinity to STING CTD (unknown origin) at 3.125 to 200 uM by surface plasmon resonance analysis; conditions: filed as agonist, dose 3.125-200 µM
CT26 [5] = experiment: Antitumor activity against mouse CT26 cells […] mouse assessed as augmentation of CD8+ T cells in spleen at 5 mg/kg, ip administered every 2 days (reference value: 6.99%); assay type: functional
[6] = target: Stimulator of interferon genes protein (Homo sapiens) (UniProt Q86WV6); experiment: Agonist activity at STING in human THP-1 cells assessed as increase in IRF3 phosphorylation incubated for 4 hrs by Western blotting analysis; assay type: cell-based; conditions: filed as agonist, dose 5-40 µM
THP-1 [7] = experiment: Upregulation of IRF3 phosphorylation in STING-knockout human THP-1 cells at 20 uM measured for 4 hrs by Western blotting analysis; assay type: functional, cell-based
CT26 [8] = experiment: Antitumor activity against mouse CT26 cells […] mouse assessed as augmentation of CD45+ cells in spleen at 10 mg/kg, ip administered every 2 days (reference value: 35.1%); assay type: functional
[9] = target: Stimulator of interferon genes protein (Homo sapiens) (UniProt Q86WV6); experiment: Binding affinity to human STING CTD assessed as change in protein denaturation temperature at 10 to 50 uM by thermal shift assay; conditions: filed as agonist, dose 10-50 µM
[10] = target: Stimulator of interferon genes protein (Homo sapiens) (UniProt Q86WV6); experiment: Agonist activity at STING in human THP-1 cells at 50 uM; assay type: cell-based; conditions: filed as agonist
MC-38 [11] = experiment: Antitumor activity against mouse MC38 cells allografted in C57/BL6 mouse assessed as increase in CD45+ T cells in tumor tissue at 300 ug, IT administered every 2 days by flow cytometry analysis; assay type: functional, cell-based; conditions: dose 300.0 µg
THP1-Dual KO-STING = experiment: Upregulation of interferon production in human THP1-Dual KO-STING cells by dual-luciferase reporter assay; assay type: functional, cell-based
MC-38 [12] = experiment: Antitumor activity against mouse MC38 cells allografted in C57/BL6 mouse assessed as increase in CD8+ T cell numbers in tumor tissues at 300 ug, IT administered every 2 days by immunohistochemical staining based analysis; assay type: functional; conditions: dose 300.0 µg
CT26 [13] = experiment: Antitumor activity against mouse CT26 cells […] mouse assessed as augmentation of CD8+ T cells in spleen at 10 mg/kg, ip administered every 2 days (reference value: 6.99%); assay type: functional
MC-38 [14] = experiment: Antitumor activity against mouse MC38 cells allografted in C57/BL6 mouse assessed as increase in NK cells in tumor tissue at 300 ug, IT administered every 2 days by flow cytometry analysis (reference value: 14%); assay type: functional; conditions: dose 300 µg, time 2 day
MC-38 [15] = experiment: Antitumor activity against mouse MC38 cells allografted in C57/BL6 mouse assessed as increase in NK cells in spleen at 300 ug, IT administered every 2 days by flow cytometry analysis (reference value: 3.95%); assay type: functional; conditions: dose 300 µg, time 2 day
MC-38 [16] = experiment: Antitumor activity against mouse MC38 cells allografted in C57/BL6 mouse assessed as increase in CD3+ T cells in spleen at 300 ug, IT administered every 2 days by flow cytometry analysis; assay type: functional, cell-based; conditions: dose 300.0 µg
[17] = target: Stimulator of interferon genes protein (Homo sapiens) (UniProt Q86WV6); experiment: Agonist activity at STING in human THP-1 cells assessed as upregulation of DNA replication related genes by gene ontology analysis; assay type: cell-based; conditions: filed as agonist
[18] = Toxicity in C57/BL6 mouse allografted with mouse MC38 cells assessed as change in body weight at 300 ug, IT administered every 2 days; assay type: cell-based, MC-38; conditions: in vivo, other, 48 h, dose 300 µg
Human alphaherpesvirus 1 [19] = experiment: Antiviral activity against HSV-1-GFP infected in human STING overexpressing HeLa cells assessed as reduction in viral infection by fluorescent microscopy analysis; assay type: functional, organism-based
CT26 [20] = experiment: Antitumor activity against mouse CT26 cells […] mouse assessed as augmentation of CD8+ T cells in spleen at 20 mg/kg, ip administered every 2 days (reference value: 6.99%); assay type: functional; conditions: time 2 day
THP-1 [21] = experiment: Upregulation of TBK1 phosphorylation in STING-knockout human THP-1 cells at 20 uM measured for 4 hrs by Western blotting analysis; assay type: functional, cell-based
[22] = target: Stimulator of interferon genes protein (Homo sapiens) (UniProt Q86WV6); experiment: Agonist activity at STING in human THP-1 cells assessed as increase in IRF3 phosphorylation at 20 uM measured for 4 hrs by Western blotting analysis; assay type: cell-based; conditions: filed as agonist
[23] = target: Stimulator of interferon genes protein (Homo sapiens) (UniProt Q86WV6); experiment: Agonist activity at STING in human THP-1 cells assessed as upregulation of IFNgamma related genes by GSEA; assay type: cell-based; conditions: filed as agonist
MC-38 [24] = experiment: Antitumor activity against mouse MC38 cells allografted in C57/BL6 mouse assessed as increase in CD3+ T cells in tumor tissue at 300 ug, IT administered every 2 days by flow cytometry analysis; assay type: functional, cell-based; conditions: dose 300.0 µg
[25] = target: Stimulator of interferon genes protein (Homo sapiens) (UniProt Q86WV6); experiment: Agonist activity at STING in human THP-1 cells assessed as increase in TBK1 phosphorylation incubated for 4 hrs by Western blotting analysis; assay type: cell-based; conditions: filed as agonist, dose 5-40 µM
[26] = target: Stimulator of interferon genes protein (Homo sapiens) (UniProt Q86WV6); experiment: Agonist activity at STING in human THP-1 cells assessed as decrease in STING monomer level at 5 to 40 uM by Western blotting analysis; assay type: cell-based; conditions: filed as agonist, dose 5-40 µM
MC-38 [27] = experiment: Antitumor activity against mouse MC38 cells allografted in C57/BL6 mouse assessed as tumor growth inhibition at 300 ug, IT administered every 2 days relative to control; assay type: functional; conditions: dose 300 µg
MC-38 [28] = experiment: Antitumor activity against mouse MC38 cells allografted in C57/BL6 mouse assessed as increase in CD45+ T cells in spleen at 300 ug, IT administered every 2 days by flow cytometry analysis; assay type: functional, cell-based; conditions: dose 300.0 µg
THP-1 [29] = experiment: Upregulation of IFNB mRNA level in STING-knockout human THP-1 cells at 20 uM measured for 4 hrs by qPCR analysis; assay type: functional, cell-based
[30] = target: Stimulator of interferon genes protein (Homo sapiens) (UniProt Q86WV6); experiment: Agonist activity at STING in human THP-1 cells assessed as increase in LC3-II protein level incubated for 4 hrs by Western blotting analysis; assay type: cell-based; conditions: filed as agonist, dose 5-40 µM
[31] = target: Stimulator of interferon genes protein (Homo sapiens) (UniProt Q86WV6); experiment: Agonist activity at STING in human THP-1 cells assessed as upregulation of type-1 interferon signaling pathway by gene ontology analysis; assay type: cell-based; conditions: filed as agonist

Chain of Stimulator of interferon genes protein (Homo sapiens) (Q86WV6 whole entry): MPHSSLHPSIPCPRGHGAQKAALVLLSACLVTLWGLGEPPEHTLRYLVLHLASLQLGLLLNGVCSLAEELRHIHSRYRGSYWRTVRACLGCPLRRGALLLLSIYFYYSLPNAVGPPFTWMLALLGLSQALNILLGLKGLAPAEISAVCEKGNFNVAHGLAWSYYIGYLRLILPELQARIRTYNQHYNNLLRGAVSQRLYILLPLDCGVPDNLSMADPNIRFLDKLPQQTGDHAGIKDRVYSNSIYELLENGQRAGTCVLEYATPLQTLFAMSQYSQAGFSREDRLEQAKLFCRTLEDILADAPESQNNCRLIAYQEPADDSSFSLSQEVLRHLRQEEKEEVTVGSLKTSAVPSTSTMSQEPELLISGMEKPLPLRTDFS

SMILES: CC(NCCC(c1ccccc1)c1ccccc1)c1ccccc1 (configuration not stated) [FENDILINE]
- Activity [1]: Active
- Activity (THP-1 [2]): inactive
- Activity (Human alphaherpesvirus 1 [3]): Active
- Activity [4]: Active
- Activity (CT26 [5]): 12.7%
- Activity [6]: Dose-Dependent Effect
- Activity (THP-1 [7]): inactive
- Activity (CT26 [8]): 56.3%
- Activity [9]: Active
- Activity [10]: Active
- Activity (MC-38 [11]): Active
- Activity (THP1-Dual KO-STING): inactive
- Activity (MC-38 [12]): Active
- Activity (CT26 [13]): 15.1%
- Activity (MC-38 [14]): 24%
- Activity (MC-38 [15]): 5.94%
- Activity (MC-38 [16]): Active
- Activity [17]: Active
- Activity [18]: Non-Toxic
- Activity (Human alphaherpesvirus 1 [19]): Active
- Activity (CT26 [20]): 21%
- Activity (THP-1 [21]): inactive
- Activity [22]: Active
- Activity [23]: Active
- Activity (MC-38 [24]): Active
- Activity [25]: Dose-Dependent Effect
- Activity [26]: Active
- TGI (MC-38 [27]): 82%
- Activity (MC-38 [28]): Active
- Activity (THP-1 [29]): inactive
- Activity [30]: Dose-Dependent Effect
- Activity [31]: Active
